Reference: ChEMBL document CHEMBL1157539, “Thousands of chemical starting points for antimalarial lead identification” (Nature, 2010)

Tested on: Plasmodium falciparum
Assay: GSK_TCMDC: Inhibition of Plasmodium falciparum 3D7 in whole erythrocytes, using parasite LDH activity as an index of growth.
Format: functional, organism-based
Details: Plasmodium falciparum, 3D7

Row | Compound | XC50
1 | CN(C)c1ccc(/C=C2\S/C(=N\c3ccccc3)N(c3ccccc3)C2=O)cc1[N+](=O)[O-] | 0.778 µM
2 | Cc1ccc2nc(C)cc(N/N=C/c3ccc([N+](=O)[O-])cc3)c2c1 | 0.793 µM
3 | Cc1[nH]c(C)c(-c2ccc(Oc3cccc(Cl)c3)cc2)c(=O)c1Cl | 0.0208 µM
4 | N=C(N)c1ccc(C=Cc2ccc(C(=N)N)cc2O)cc1 | 0.103 µM
5 | CCCCCCCN1CCC(NC(=O)Nc2ccnc3ccc(OC)cc23)C(CO)C1 (stereo not drawn) | 0.176 µM
6 | O=C(CCc1c[nH]cn1)Nc1cccc(-c2ccc(-c3nc4cc(F)ccc4[nH]3)s2)c1 | 0.557 µM
7 | COc1ccc(NC(=O)[C@H](CC(C)C)Nc2cc(C)nc(NCc3cccc(C)c3)n2)cc1 | 1.02 µM
8 | COc1ccc2[nH]ccc(=NN=Cc3cccc(Cl)c3)c2c1 | 0.193 µM
9 | c1ccc(CNCc2cccc(-c3cccc(-c4nc5ccccc5[nH]4)c3)c2)cc1 | 0.569 µM
10 | CCCCCCc1cc2cc(-c3nc(-c4ccc(OC)cc4)cs3)c(=O)oc2cc1O | 0.816 µM
11 | CCC(CC)NCc1c(O)ccc2c(CNC(CC)CC)c(O)ccc12 | 0.39 µM
12 | Cc1ccc(Cc2cccc3nc(N)nc(N)c23)cc1 | 1.15 µM
13 | COc1ccc(C(=O)C2CC2CN(C)CC(O)c2cc(C)c(OC)cc2C)cc1 (stereo not drawn) | 0.968 µM
14 | O=C(NC(=S)NCc1ccncc1)c1ccccc1 | 1.69 µM
15 | CCOc1ccc(-c2nonc2NC(=O)c2ccc(Cl)cc2)cc1OCC | 0.988 µM
16 | COc1ccc(-c2cc3ncnc(N4CCN(CCN5CCCC5)CC4)c3s2)cc1 | 0.831 µM
17 | O=C(C1CCN(C(c2ccccc2)c2ccc(Cl)c(Cl)c2)CC1)N1CC=CC1 (stereo not drawn) | 0.725 µM
18 | CC[C@H](C)CNC(=O)c1cncc(-c2cccc(CNC3Cc4ccccc4C3)c2)c1 | 0.591 µM
19 | Cc1noc(C)c1-c1cccc(CNCc2ccc(-c3cccc(-c4nc5cc(F)ccc5[nH]4)c3)cc2)c1 | 0.545 µM
20 | CC(C)(C)c1cc(C(=O)N2CCN(c3nccnc3C#N)CC2)n(Cc2ccccc2)n1 | 0.759 µM
21 | COCCN1CCN(Cc2ccc(-c3ccc(-c4nc5cccc(C)c5[nH]4)s3)cc2)CC1 | 0.859 µM
22 | Cc1ccc(NC(=O)c2ccc3ncccc3c2)cc1OC1CCN(Cc2ccsc2)CC1 | 0.93 µM
23 | C#CCOc1ccc2ccccc2c1CNCCCCCCNCc1c(OCC#C)ccc2ccccc12 | 0.78 µM
24 | Cn1cc(CCNc2ccnc(N3CCC(c4ncc[nH]4)CC3)n2)c2ccccc21 | 1.2 µM
25 | CCCCCCN1CCCN(Cc2ccc(C(=O)Nc3ccc(C(C)C)cc3)cc2)CC1 | 0.834 µM

Row | Compound | XC50
26 | CCCCCCNC(=O)C1Cc2c([nH]c3cc(Cl)ccc23)C2(CCN(CCC)CC2)N1 (stereo not drawn) | 0.88 µM
27 | CCCCc1ccc2ncc(C(=O)OCC)c(O)c2c1 | 0.632 µM
28 | Cc1cc(NCCC(=O)Nc2ccccc2)nc(NCCc2cccs2)n1 | 0.893 µM
29 | N#Cc1ccc(N(CCOc2ccc(Cl)c(Cl)c2)Cc2ccccc2C(F)(F)F)cc1C(F)(F)F | 1.11 µM
30 | CCOC(=O)N1CCN(CCCCNc2c3ccc(Cl)cc3nc3ccc(OC)cc23)CC1 | 0.121 µM
31 | COc1ccc(Cc2cnc3nc(N)nc(N)c3c2C)cc1OC | 0.00941 µM
32 | CC(C)(C)c1ccc(NC(=O)c2ccc(CN3CCCN(Cc4cccc(C#N)c4)CC3)cc2)cc1 | 0.641 µM
33 | CCOc1ccc2ccccc2c1C(=O)Nc1cc(C)nn1-c1nc(C)cc(=O)[nH]1 | 1.01 µM
34 | CC(C)c1ccc(CN2CCCCC(NC(=O)c3cc(-c4ccccc4Cl)cs3)C2)cc1 (stereo not drawn) | 1.12 µM
35 | Nc1c2c(nc3ccc(NC(=O)CCCCCCc4ccccc4)cc13)CCCC2 | 0.248 µM
36 | CC(C)CCNC(=O)C1Cc2c([nH]c3ccc(Br)cc23)C2(CCN(CCc3ccccc3)CC2)N1 (stereo not drawn) | 0.688 µM
37 | Cc1ccc(CC(C)NC[C@H](O)c2cccc(Cl)c2)cc1 (stereo partly drawn) | 0.86 µM
38 | OC(CNc1ccnc(Nc2ccccc2)n1)c1ccc(C(F)(F)F)cc1 (stereo not drawn) | 0.606 µM
39 | COc1cc(Cc2cnc(N)nc2N)c2c(c1OC)OC(C)(C)C=C2 | 1.19 µM
40 | COc1cc(Nc2nc(N)n(C(=O)c3ccc4c(c3)OCO4)n2)cc(OC)c1OC | 1.13 µM
41 | CCC(NCc1ccc(-c2cncc(C(=O)NCC(C)C)c2)cc1)c1ccccc1 (stereo not drawn) | 0.944 µM
42 | CN(C)CCCn1cc(C(=O)OC2CC3CCC(C2)N3C)c2cc(-c3ccccc3)ccc21 (stereo not drawn) | 0.837 µM
43 | O=C(/C=C/c1ccccc1Cl)Nc1ccc(Br)c(OCCN2CCN(CCN3CCCC3)CC2)c1 | 0.653 µM
44 | N#Cc1ccc(CN2CCC(Oc3ccc(NC(=O)c4cccs4)cc3Cl)CC2)cc1 | 0.577 µM
45 | COc1ccc(CCn2c(=N)c(C(=O)NCc3cccnc3)cc3c(=O)n4cccc(C)c4nc32)cc1 | 1.4 µM
46 | N=C(NCCc1ccc(Cl)cc1)c1ccc(Cl)c(Cl)c1 | 1.1 µM
47 | CCN(CC)CCN1C(=O)c2oc3ccc(F)cc3c(=O)c2C1c1cccc(Cl)c1 (stereo not drawn) | 0.531 µM
48 | CCOC(=O)c1ccc(NC(=O)N[C@@H](Cc2ccccc2)C(=O)NC2CCN(Cc3ccc(OCCCN(C)C)cc3)C2)cc1 (stereo partly drawn) | 0.702 µM
49 | CCNc1cc(C)nc(Nc2ccc(NC(=O)c3ccc(OC)c(OC)c3)cc2)n1 | 1.07 µM
50 | CN(CCc1ccccc1)c1ncc(-c2cccc(CNCCC3CCCN3C)c2)cn1 (stereo not drawn) | 0.87 µM

Row | Compound | XC50
51 | Cc1cccc2nc(-c3cccc(-c4cccc(NC(=O)CNC(=O)c5ccc(O)cc5)c4)c3)[nH]c12 | 0.99 µM
52 | c1cn(CCCNc2ncc(-c3ccsc3)c(-c3nccs3)n2)cn1 | 0.646 µM
53 | Cc1ccc2c(NC(=O)Nc3ccc(N(C)C)cc3)cc(C)nc2c1 | 0.82 µM
54 | O=C(Nc1cccc(CN2CCCN(Cc3ccc4c(c3)OCO4)CC2)c1)c1cc2ccccc2s1 | 0.99 µM
55 | O=C(Nc1ccc(-c2oc(C(=O)NCCc3cccc(Cl)c3)cc2-c2ccncc2)cc1)Nc1cccc(Cl)c1 | 0.722 µM
56 | COc1ccccc1CCNc1nc(C)cc(NCCC(=O)NCCOc2ccccc2)n1 | 1.37 µM
57 | Cc1cc(N(C)CCN(C)C)nc(Nc2ccc(Br)cc2)n1 | 0.801 µM
58 | COCC(C)n1c(C)cc(C(=O)CSc2nnc(Nc3ccccc3)s2)c1C (stereo not drawn) | 0.736 µM
59 | O=C(C=Cc1ccc(Cl)c(Cl)c1)NCCCCCN1CCC(CCNC(=O)c2ccc3c(c2)OCO3)CC1 | 0.693 µM
60 | COc1cc2nc(NCCn3nc(C)cc3C)nc(NCCc3ccccc3)c2cc1OC | 0.436 µM
61 | O=C(Nc1ccc(-c2cccc(-c3nc4cc(C(F)(F)F)ccc4[nH]3)c2)cc1)c1ccoc1 | 0.829 µM
62 | COc1ccc(Nc2nc(=Nc3ccccc3)nc(NN=Cc3cc(Cl)ccc3O)[nH]2)cc1 | 0.647 µM
63 | CC(C)c1ccc(NC(=O)NCC2CCCN(CCCCCNC(=O)/C=C/c3ccc(Cl)c(Cl)c3)C2)cc1 (stereo not drawn) | 0.806 µM
64 | COCCOC(=O)C(=O)c1c(-c2ccccc2)c(-c2ccc(OC)c(OC)c2)c2c3cc(OC)c(OC)cc3ccn12 | 0.497 µM
65 | CN1CCc2cc(NC(=O)c3cc4ccccc4s3)cc(-c3ccccc3)c2CC1 | 0.885 µM
66 | COc1ccc(CCN2CC[C@H](Nc3nc(-c4ccc(F)c(F)c4)nc4ccccc34)C2)cc1S(N)(=O)=O | 0.789 µM
67 | Cc1cccc2nc(-c3ccc(-c4ccc(NC(=O)Nc5ccc(Cl)c(Cl)c5)cc4)s3)[nH]c12 | 0.176 µM
68 | CCCc1cc(OC)c(CC2c3cc(O)c(C)cc3CCN2C)cc1OC (stereo not drawn) | 0.701 µM
69 | NC(=O)c1cccc(C(=O)Nc2cccc(-c3cccc(-c4nc5ccccc5[nH]4)c3)c2)c1 | 0.548 µM
70 | Cc1cc(NC2CCCC2)nc(Nc2ccccc2F)n1 | 0.926 µM
71 | COc1ccc2nc(-c3ccc(F)cc3)cc([C@@H](O)[C@@H]3C[C@@H]4CCN3CC4C=NO)c2c1 (stereo partly drawn) | 0.248 µM
72 | O=C(NCCc1ccccc1)N(Cc1ccccc1-c1cccc(CNCCc2ccccc2)c1)C1CCN(Cc2ccccc2)CC1 | 0.625 µM
73 | Clc1ccc2c(N3CCCNCC3)ccnc2c1 | 0.482 µM
